Assay results: ChEMBL document CHEMBL2073967, “Characterisation of cerivastatin as a P-glycoprotein substrate: studies in P-glycoprotein-expressing cell monolayers and mdr1a/b knock-out mice” (Naunyn Schmiedebergs Arch Pharmacol, 2004)

Biological target: ATP-dependent translocase ABCB1 (Homo sapiens, UniProt P08183)
Assay: TP_TRANSPORTER: transepithelial transport in L-MDR1 cells
Type: functional, cell-based
Details: pig

Chain of ATP-dependent translocase ABCB1 (P08183 whole entry): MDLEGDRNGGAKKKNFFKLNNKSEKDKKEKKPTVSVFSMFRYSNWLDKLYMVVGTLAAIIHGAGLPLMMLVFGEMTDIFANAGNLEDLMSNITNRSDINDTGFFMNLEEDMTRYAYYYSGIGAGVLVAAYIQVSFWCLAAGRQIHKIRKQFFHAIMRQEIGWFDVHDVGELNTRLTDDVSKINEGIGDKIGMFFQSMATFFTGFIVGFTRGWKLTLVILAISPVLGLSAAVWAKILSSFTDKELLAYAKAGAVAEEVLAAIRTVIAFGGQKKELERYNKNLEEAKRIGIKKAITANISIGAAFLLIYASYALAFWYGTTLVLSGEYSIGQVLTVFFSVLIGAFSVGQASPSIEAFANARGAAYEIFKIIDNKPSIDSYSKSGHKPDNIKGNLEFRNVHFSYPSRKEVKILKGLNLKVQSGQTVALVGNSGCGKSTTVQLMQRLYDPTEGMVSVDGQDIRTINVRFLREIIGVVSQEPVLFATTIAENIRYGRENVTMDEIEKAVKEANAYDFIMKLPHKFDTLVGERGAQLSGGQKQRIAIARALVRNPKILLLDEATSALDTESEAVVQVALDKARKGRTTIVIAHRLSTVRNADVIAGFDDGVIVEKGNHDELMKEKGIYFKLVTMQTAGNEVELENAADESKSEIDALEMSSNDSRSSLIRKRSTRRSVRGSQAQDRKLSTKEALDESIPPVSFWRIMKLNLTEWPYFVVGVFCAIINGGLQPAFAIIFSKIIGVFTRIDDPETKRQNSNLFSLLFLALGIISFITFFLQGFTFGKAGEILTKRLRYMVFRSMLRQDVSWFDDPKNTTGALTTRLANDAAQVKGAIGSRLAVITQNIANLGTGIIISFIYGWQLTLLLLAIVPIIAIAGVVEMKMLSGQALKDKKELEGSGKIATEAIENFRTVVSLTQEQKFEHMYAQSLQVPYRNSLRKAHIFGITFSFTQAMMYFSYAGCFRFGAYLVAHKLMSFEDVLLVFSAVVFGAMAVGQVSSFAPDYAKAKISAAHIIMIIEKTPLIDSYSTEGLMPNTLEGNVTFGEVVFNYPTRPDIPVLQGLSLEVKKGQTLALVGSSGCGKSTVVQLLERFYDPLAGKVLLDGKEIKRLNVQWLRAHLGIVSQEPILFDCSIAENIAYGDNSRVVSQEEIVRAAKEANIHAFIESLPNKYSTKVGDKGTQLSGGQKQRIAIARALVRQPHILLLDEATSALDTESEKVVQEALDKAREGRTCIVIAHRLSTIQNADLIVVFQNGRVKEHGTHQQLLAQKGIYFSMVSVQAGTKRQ

Activity: substrate [+]
SMILES: COCc1c(C(C)C)nc(C(C)C)c(/C=C/[C@@H](O)C[C@@H](O)CC(=O)O)c1-c1ccc(F)cc1 [CERIVASTATIN]
